From patent US11613538B2, “Method of inhibiting or reducing a viral infection” (PTC Therapeutics, Inc., priority 2009, dated 2023)
pEC50: −log10 of the molar value.

tested on: hypoxia-induced VEGF production in HeLa cells; assay: cells; format: cell-based, human; details: Homo sapiens, HeLa

| Compound | pEC50 |
| --- | --- |
| CCOC(=O)N1CCc2c([nH]c3ccc(Cl)cc23)C1c1ccc(OCC(O)CO)cc1 (stereo not drawn) [Compound 1000] | 7.40 to 8.10 |
| CC#CCOC(=O)N1CCc2c([nH]c3ccc(Cl)cc23)C1c1ccc(OCC(O)CN)cc1 (stereo not drawn) [Compound 1002] | 6.70 to 7.40 |
| CCOC(=O)N1CCc2c([nH]c3ccc(Cl)cc23)C1c1ccc(OCC(=O)N2CCN(CCOC)CC2)cc1 (stereo not drawn) [Compound 1003] | 7.40 to 8.10 |
| CCOC(=O)N1CCc2c([nH]c3ccc(Cl)cc23)C1c1ccc(OCC(=O)NCCN2CCOCC2)cc1 (stereo not drawn) [Compound 1004] | 7.40 to 8.10 |
| COc1ccc(OC(=O)N2CCc3c([nH]c4ccc(Cl)cc34)C2c2ccc(OCCC3CCCN3C)cc2)cc1 (stereo not drawn) [Compound 1005] | 6.00 to 6.70 |
| CCOC(=O)N1CCc2c([nH]c3ccc(Cl)cc23)C1c1ccc(OCCC2CCCN2C)cc1 (stereo not drawn) [Compound 1006] | 6.70 to 7.40 |
| COC(=O)N1CCc2c([nH]c3ccc(Cl)cc23)C1c1ccc(OCCC2CCCN2C)cc1 (stereo not drawn) [Compound 1007] | 6.70 to 7.40 |
| CN1CCCC1CCOc1ccc(C2c3[nH]c4ccc(Cl)cc4c3CCN2C(=O)Oc2ccc(F)cc2)cc1 (stereo not drawn) [Compound 1008] | 6.70 to 7.40 |
| COC(=O)N1CCc2c([nH]c3ccc(Cl)cc23)C1c1ccc(OCC2CCCCN2C)cc1 (stereo not drawn) [Compound 1010] | 6.70 to 7.40 |
| CCOC(=O)N1CCc2c([nH]c3ccc(Cl)cc23)C1c1ccc(OCC(=O)N2CCOCC2)cc1 (stereo not drawn) [Compound 1012] | 6.70 to 7.40 |
| CCOC(=O)N1CCc2c([nH]c3ccc(Cl)cc23)C1c1ccc(OCC(=O)NCCO)cc1 (stereo not drawn) [Compound 1013] | 7.40 to 8.10 |
| CCOC(=O)N1CCc2c([nH]c3ccc(Cl)cc23)C1c1ccc(OCC(=O)N2CCN(CCO)CC2)cc1 (stereo not drawn) [Compound 1014] | 6.70 to 7.40 |
| CCOC(=O)N1CCc2c([nH]c3ccc(Cl)cc23)C1c1ccc(OCC(=O)NCCOC)cc1 (stereo not drawn) [Compound 1015] | 6.70 to 7.40 |
| O=C(Oc1ccc(Cl)cc1)N1CCc2c([nH]c3ccc(Cl)cc23)C1c1ccc(OCCCn2nccn2)cc1 (stereo not drawn) [Compound 1016] | < 6.00 |
| O=C(Oc1ccc(F)cc1)N1CCc2c([nH]c3ccc(Cl)cc23)C1c1ccc(OCCCn2nccn2)cc1 (stereo not drawn) [Compound 1017] | > 8.10 |
| CC#CCOC(=O)N1CCc2c([nH]c3ccc(Cl)cc23)C1c1ccc(OCC(O)CO)cc1 (stereo not drawn) [Compound 1018] | 7.40 to 8.10 |
| C#CCCOC(=O)N1CCc2c([nH]c3ccc(Cl)cc23)C1c1ccc(OCC(O)CO)cc1 (stereo not drawn) [Compound 1019] | 7.40 to 8.10 |
| C#CCOC(=O)N1CCc2c([nH]c3ccc(Cl)cc23)C1c1ccc(OCC(O)CO)cc1 (stereo not drawn) [Compound 1020] | 7.40 to 8.10 |
| COCCN1CCN(C(=O)COc2ccc(C3c4[nH]c5ccc(Cl)cc5c4CCN3C(=O)Oc3ccc(F)cc3)cc2)CC1 (stereo not drawn) [Compound 1021] | 6.70 to 7.40 |
| O=C(COc1ccc(C2c3[nH]c4ccc(Cl)cc4c3CCN2C(=O)Oc2ccc(F)cc2)cc1)NCCN1CCOCC1 (stereo not drawn) [Compound 1022] | 6.70 to 7.40 |
| O=C(COc1ccc(C2c3[nH]c4ccc(Cl)cc4c3CCN2C(=O)Oc2ccc(F)cc2)cc1)N1CCOCC1 (stereo not drawn) [Compound 1023] | 7.40 to 8.10 |
| CCN1CCN(C(=O)COc2ccc(C3c4[nH]c5ccc(Cl)cc5c4CCN3C(=O)Oc3ccc(F)cc3)cc2)CC1 (stereo not drawn) [Compound 1024] | 6.70 to 7.40 |
| COCCN1CCN(C(=O)COc2ccc(C3c4[nH]c5ccc(Cl)cc5c4CCN3C(=O)Oc3ccc(OC)cc3)cc2)CC1 (stereo not drawn) [Compound 1025] | 6.70 to 7.40 |
| COc1ccc(OC(=O)N2CCc3c([nH]c4ccc(Cl)cc34)C2c2ccc(OCC(=O)NCCN3CCOCC3)cc2)cc1 (stereo not drawn) [Compound 1026] | 7.40 to 8.10 |

| Compound | pEC50 |
| --- | --- |
| CCN1CCN(C(=O)COc2ccc(C3c4[nH]c5ccc(Cl)cc5c4CCN3C(=O)Oc3ccc(OC)cc3)cc2)CC1 (stereo not drawn) [Compound 1028] | 6.70 to 7.40 |
| COc1ccc(OC(=O)N2CCc3c([nH]c4ccc(Cl)cc34)C2c2ccc(OCC(=O)N3CCN(CCCN(C)C)CC3)cc2)cc1 (stereo not drawn) [Compound 1029] | < 6.00 |
| COc1ccc(OC(=O)N2CCc3c([nH]c4ccc(Cl)cc34)C2c2ccc(OCCCN3CCOCC3)cc2)cc1 (stereo not drawn) [Compound 1030] | 7.40 to 8.10 |
| COC(=O)N1CCc2c([nH]c3ccc(Cl)cc23)C1c1ccc(OCC2OCCO2)cc1 (stereo not drawn) [Compound 1032] | 7.40 to 8.10 |
| CCOC(=O)N1CCc2c([nH]c3ccc(Cl)cc23)C1c1ccc(OCC2OCCO2)cc1 (stereo not drawn) [Compound 1033] | 7.40 to 8.10 |
| CCCOC(=O)N1CCc2c([nH]c3ccc(Cl)cc23)C1c1ccc(OCC2OCCO2)cc1 (stereo not drawn) [Compound 1034] | > 8.10 |
| CCCCOC(=O)N1CCc2c([nH]c3ccc(Cl)cc23)C1c1ccc(OCC2OCCO2)cc1 (stereo not drawn) [Compound 1035] | > 8.10 |
| CC(C)COC(=O)N1CCc2c([nH]c3ccc(Cl)cc23)C1c1ccc(OCC2OCCO2)cc1 (stereo not drawn) [Compound 1037] | > 8.10 |
| CC(C)(C)COC(=O)N1CCc2c([nH]c3ccc(Cl)cc23)C1c1ccc(OCC2OCCO2)cc1 (stereo not drawn) [Compound 1038] | > 8.10 |
| O=C(OCCF)N1CCc2c([nH]c3ccc(Cl)cc23)C1c1ccc(OCC2OCCO2)cc1 (stereo not drawn) [Compound 1039] | > 8.10 |
| O=C(OCCCl)N1CCc2c([nH]c3ccc(Cl)cc23)C1c1ccc(OCC2OCCO2)cc1 (stereo not drawn) [Compound 1040] | 7.40 to 8.10 |
| O=C(OCCCCl)N1CCc2c([nH]c3ccc(Cl)cc23)C1c1ccc(OCC2OCCO2)cc1 (stereo not drawn) [Compound 1041] | 7.40 to 8.10 |
| COCCOC(=O)N1CCc2c([nH]c3ccc(Cl)cc23)C1c1ccc(OCC2OCCO2)cc1 (stereo not drawn) [Compound 1042] | 7.40 to 8.10 |
| C=COC(=O)N1CCc2c([nH]c3ccc(Cl)cc23)C1c1ccc(OCC2OCCO2)cc1 (stereo not drawn) [Compound 1043] | > 8.10 |
| C=CCOC(=O)N1CCc2c([nH]c3ccc(Cl)cc23)C1c1ccc(OCC2OCCO2)cc1 (stereo not drawn) [Compound 1044] | > 8.10 |
| C=CCCOC(=O)N1CCc2c([nH]c3ccc(Cl)cc23)C1c1ccc(OCC2OCCO2)cc1 (stereo not drawn) [Compound 1045] | > 8.10 |
| C=C(C)OC(=O)N1CCc2c([nH]c3ccc(Cl)cc23)C1c1ccc(OCC2OCCO2)cc1 (stereo not drawn) [Compound 1046] | 7.40 to 8.10 |
| CC#CCOC(=O)N1CCc2c([nH]c3ccc(Cl)cc23)C1c1ccc(OCC2OCCO2)cc1 (stereo not drawn) [Compound 1047] | > 8.10 |
| C#CCOC(=O)N1CCc2c([nH]c3ccc(Cl)cc23)C1c1ccc(OCC2OCCO2)cc1 (stereo not drawn) [Compound 1048] | > 8.10 |
| C#CCCOC(=O)N1CCc2c([nH]c3ccc(Cl)cc23)C1c1ccc(OCC2OCCO2)cc1 (stereo not drawn) [Compound 1049] | > 8.10 |
| O=C(Oc1ccc(Cl)cc1)N1CCc2c([nH]c3ccc(Cl)cc23)C1c1ccc(OCC2OCCO2)cc1 (stereo not drawn) [Compound 1053] | > 8.10 |
| O=C(OCc1ccccc1)N1CCc2c([nH]c3ccc(Cl)cc23)C1c1ccc(OCC2OCCO2)cc1 (stereo not drawn) [Compound 1056] | > 8.10 |
| O=C(OCc1ccccc1Cl)N1CCc2c([nH]c3ccc(Cl)cc23)C1c1ccc(OCC2OCCO2)cc1 (stereo not drawn) [Compound 1057] | > 8.10 |
| O=C(OCc1ccccc1)N1CCc2c([nH]c3ccc(Cl)cc23)C1c1ccc(OCCCO)cc1 (stereo not drawn) [Compound 1059] | > 8.10 |

| Compound | pEC50 |
| --- | --- |
| C=CCOC(=O)N1CCc2c([nH]c3ccc(Cl)cc23)C1c1ccc(OCCCO)cc1 (stereo not drawn) [Compound 1060] | > 8.10 |
| CC(C)COC(=O)N1CCc2c([nH]c3ccc(Cl)cc23)C1c1ccc(OCCCO)cc1 (stereo not drawn) [Compound 1061] | > 8.10 |
| O=C(COc1ccc(C2c3[nH]c4ccc(Cl)cc4c3CCN2C(=O)Oc2ccc(F)cc2)cc1)NCCO (stereo not drawn) [Compound 1063] | 7.40 to 8.10 |
| O=C(COc1ccc(C2c3[nH]c4ccc(Cl)cc4c3CCN2C(=O)Oc2ccc(F)cc2)cc1)N1CCN(CCO)CC1 (stereo not drawn) [Compound 1064] | 7.40 to 8.10 |
| O=C(Oc1ccc(Cl)cc1)N1CCc2c([nH]c3ccc(Cl)cc23)[C@@H]1c1ccc(OC[C@H](O)CN2CCOCC2)cc1 [Compound 1070] | > 8.10 |
| O=C(Oc1ccc(Cl)cc1)N1CCc2c([nH]c3ccc(Cl)cc23)[C@@H]1c1ccc(OC[C@@H](O)CN2CCOCC2)cc1 [Compound 1071] | > 8.10 |
| C=CCOC(=O)N1CCc2c([nH]c3ccc(Cl)cc23)C1c1ccc(OCCCN2CCN(C)CC2)cc1 (stereo not drawn) [Compound 1072] | > 8.10 |
| CCOC(=O)N1CCc2c([nH]c3ccc(Cl)cc23)C1c1ccc(OCC(O)Cn2nccn2)cc1 (stereo not drawn) [Compound 1073] | > 8.10 |
| CC(C)OC(=O)N1CCc2c([nH]c3ccc(Cl)cc23)C1c1ccc(OCCCO)cc1 (stereo not drawn) [Compound 1074] | > 8.10 |
| O=C(Oc1ccccc1)N1CCc2c([nH]c3ccc(Cl)cc23)C1c1ccc(OCCCN2CCOCC2)cc1 (stereo not drawn) [Compound 1075] | 7.40 to 8.10 |
| CN1CCN(CCCOc2ccc(C3c4[nH]c5ccc(Cl)cc5c4CCN3C(=O)Oc3ccccc3)cc2)CC1 (stereo not drawn) [Compound 1076] | 6.70 to 7.40 |
| C=CCOC(=O)N1CCc2c([nH]c3ccc(Cl)cc23)C1c1ccc(OCCCN2CCOCC2)cc1 (stereo not drawn) [Compound 1079] | > 8.10 |
| C=CCOC(=O)N1CCc2c([nH]c3ccc(Cl)cc23)C1c1ccc(OCCCn2ccnn2)cc1 (stereo not drawn) [Compound 1080] | > 8.10 |
| C=CCOC(=O)N1CCc2c([nH]c3ccc(Cl)cc23)C1c1ccc(OCCCn2nccn2)cc1 (stereo not drawn) [Compound 1081] | > 8.10 |
| COCCOC(=O)N1CCc2c([nH]c3ccc(Cl)cc23)C1c1ccc(OCCCn2ccnn2)cc1 (stereo not drawn) [Compound 1083] | 7.40 to 8.10 |
| COCCOC(=O)N1CCc2c([nH]c3ccc(Cl)cc23)C1c1ccc(OCCCn2nccn2)cc1 (stereo not drawn) [Compound 1084] | 7.40 to 8.10 |
| CCOC(=O)N1CCc2c([nH]c3ccc(Cl)cc23)C1c1ccc(OCC(O)CNC(=O)COC)cc1 (stereo not drawn) [Compound 1085] | > 8.10 |
| COc1cc(C2c3[nH]c4ccc(Cl)cc4c3CCN2C(=O)Oc2ccc(Cl)cc2)ccc1OCCN1CCOCC1 (stereo not drawn) [Compound 1092] | 7.40 to 8.10 |
| COc1cc(C2c3[nH]c4ccc(Cl)cc4c3CCN2C(=O)Oc2ccc(Cl)cc2)ccc1OCCCN1CCOCC1 (stereo not drawn) [Compound 1093] | 7.40 to 8.10 |
| COc1cc(C2c3[nH]c4ccc(Cl)cc4c3CCN2C(=O)Oc2ccc(Cl)cc2)ccc1OCCCCN1CCOCC1 (stereo not drawn) [Compound 1094] | 7.40 to 8.10 |
| COc1ccc(C2c3[nH]c4ccc(Cl)cc4c3CCN2C(=O)Oc2ccc(Cl)cc2)cc1OCCN1CCOCC1 (stereo not drawn) [Compound 1095] | 6.00 to 6.70 |
| COc1ccc(C2c3[nH]c4ccc(Cl)cc4c3CCN2C(=O)Oc2ccc(Cl)cc2)cc1OCCCN1CCOCC1 (stereo not drawn) [Compound 1096] | 6.00 to 6.70 |
| COc1ccc(C2c3[nH]c4ccc(Cl)cc4c3CCN2C(=O)Oc2ccc(Cl)cc2)cc1OCCCCN1CCOCC1 (stereo not drawn) [Compound 1097] | 6.70 to 7.40 |
| O=C(Oc1ccc(Cl)cc1)N1CCc2c([nH]c3ccc(Cl)cc23)C1c1ccc(OCCCN2CCC(CO)C2)cc1 (stereo not drawn) [Compound 1098] | 7.40 to 8.10 |
